Results reported in patent EP2792683A1, “Compounds potentiating the activity of antifungal drugs” (Fundacion MEDINA. Centro de Excelencia en Investigacion de …, priority 2013, dated 2014).

System: C. albicans
Assay: Cell viability by membrane integrity, propidium iodide (PI) flow cytometry
Assay type: cell-based
Description: • Figure 1. Checkerboard assay showing the potentiation of the antifungal caspofungin by the compound MDN-0018. In this assay, dose response curves of the compound MDN-0018 (8 to 0.015 µg/mL) are performed from left to right and dose response curves of caspofungin (0.24 to 0.018 µg/mL) are performed from top to bottom. Other known antifungal compounds (echinocandins, azoles and polyenes) were tested, obtaining a similar checkboard. […] Determination of the potentiation of caspofungin activity by the compound MDN-0018 against A. fumigatus. Study of the optimum concentration of the compounds MDN-0018 and caspofungin where maximum enhancement of caspofungin is reached is shown in Figure 2.1. In addition, the graphic representation of curves, in duplicate, of the caspofungin potentiated by the compound MDN-0018 is shown in Figure 2.1. Each curve represents a curve of caspofungin from 0.24 to 0.018 µg/mL ([…]) with set concentrations of the MDN-0018 compound from 8 to 0.015 µg/mL (8.86 to 0.017 µM). • Figure 3. Flow cytometry experiments to determine cellular viability by changes in membrane permeability using propidium iodide (PI) as probe. […]
Cell viability was determined by changes in membrane permeability, live cells with intact membranes are distinguished by their ability to exclude dyes that easily penetrate dead or damaged cells. […]

CC[C@H](C)C[C@H](C)CCCCCCCCC(=O)N[C@H]1C[C@@H](O)[C@@H](NCCN)NC(=O)[C@@H]2[C@@H](O)CCN2C(=O)[C@H]([C@H](O)CCN)NC(=O)[C@H]([C@H](O)[C@@H](O)c2ccc(O)cc2)NC(=O)[C@@H]2C[C@@H](O)CN2C(=O)[C@H]([C@@H](C)O)NC1=O [caspofungin]
cellular viability by changes in membrane permeability (PI), flow cytometry profile (1 µg/mL of caspofungin): damaged population | cellular viability by changes in membrane permeability (PI), flow cytometry profile (sublethal dose of caspofungin (0.015 µg/mL)): same profile as the non treated cells
